Experimental data: PubChem BioAssay AID1963847 (Molecular Pharmacology Branch, DTP, NCI, 2024)

Tested on: 415267-285-R-J2-PDC complex spheroid viability
Test: Anticancer human tumor 415267-285-R-J2-PDC patient-derived breast carcinoma cell line growth inhibition [POLQ]
Details: for IC50: curve of first compound; for viability, T/C: stronger effect = lower value; active = viability on the fitted dose curve at most 10% of control; inactive = the rest
Method: Multicellular complex tumor spheroid response to Polymerase (POL) inhibitors (novobiocin, ART-558, RP6685) in combination with a variety of drugs and investigational agents in selected tumor cell lines
The POL inhibitors (novobiocin, ART-558, and RP6685) were evaluated both individually and in combination with standard of care and investigational anticancer small molecules within a complex spheroid model of solid tumors. . Complex spheroids include a stromal component modeled by human endothelial cells (HUVEC) and fibroblasts modeled by human mesenchymal stem cells (MSCs). The concentration ranges selected for each drug and investigational agent were based upon clinically achievable concentrations if the clinical Cmax of the agent was known.
Compounds. The drugs and investigational agents: novobiocin (NSC847541), ART-558 (NSC835418), RP-6685 (NSC848927), peposertib (NSC802822), ceralasertib (NSC780249), elimusertib (NSC800525), camonsertib (NSC841442), AZD-1390 (NSC803789), olaparib (NSC753686), talazoparib (NSC767125), rucaparib (NSC756644), sotorasib (NSC818433), MRTX-1133 (NSC836407), SN-38 (NSC673596), topotecan (NSC609699), epotoside (NSC141540), doxorubicin (NSC123127), gemcitabine (NSC613327), 5-fluorouracil (NSC19893), paclitaxel (NSC125973), vemurafenib (NSC761431), MSA-2 (NSC828583), SN-011 (NSC837082), adavosertib (NSC754352), prexasertib (NSC758257), carboplatin (NSC241240) and oxaliplatin (NSC266046), were obtained from the National Cancer Institute (NCI) Developmental Therapeutics Program Chemical Repository (21). The FDA-approved anticancer drug set is available from the Developmental Therapeutics Program at https://dtp.cancer.gov/organization/dscb/obtaining/. […] The stock solutions were prepared in dimethyl sulfoxide (DMSO, Sigma-Aldrich, St. Louis, MO, cat. D2650), except for the platinum compounds which were prepared in saline (Quality Biological, Gaithersburg, MD, cat. 114-055-101), at 800-fold the tested concentration and stored at -70 degrees C prior to their use. All drugs and investigational agents were tested over a range starting from a high concentration at or near the clinical Cmax and decreasing in half-log increments. If the clinical Cmax for an agent had not been determined, the highest concentration tested was 10 microM, except for SN-38, which was tested at a high concentration of 1 microM.
Cell Culture. All cells were maintained in an incubator at 37 degrees C and 5% CO2 with 95% humidity. The PDC lines were cultured according to standard operating procedures established by the NCI PDMR (https://pdmr.cancer.gov). Table 3 of the manuscript, lists the cell lines along with the number of the three cell types plated to form the mct-spheroids and media for tumor cell growth. After thawing, all PDC lines, except 997537-175-T-J1-PDC and 415267-285-R-J2-PDC, were cultured in Matrigel-coated flasks prepared with a working solution of 1X Ham's F-12 nutrient mix, without supplementation (Thermo Fisher Scientific, cat. 11765054), 100 U/mL penicillin-streptomycin (Thermo Fisher Scientific, cat. 15140122), and 2.5% Matrigel (Corning Inc., Corning, NY, cat. 354248) for the first three passages. The two PDC lines 997537-175-T-J1-PDC and 415267-285-R-J2-PDC were cultured on uncoated flasks. The 857933-349-R-J2-PDC line was cultured in 6C/Colon 1B media containing advanced DMEM/F-12 (Thermo Fisher Scientific, cat. 12634028), 10 mM HEPES (Thermo Fisher Scientific, cat. 15630080), 1X GlutaMAX supplement (Thermo Fisher Scientific, cat. 35050061), 0.1 mg/mL primocin (InvivoGen, San Diego, CA, cat. ant-pm-2), 10% defined fetal bovine serum, heat inactivated (HyClone Laboratories Inc., Logan, UT, cat. SH30070.03HI), 50% L-WRN conditioned media (ATCC, cat. CRL-3276), 1.25 mM N-Acetyl-L-cysteine (Sigma-Aldrich, cat. A9165), 10 mM nicotinamide (Sigma-Aldrich, cat. N0636), 1X B-27 supplement (Thermo Fisher Scientific, cat. 17504044), 1X N-2 supplement (Thermo Fisher Scientific, cat. […]
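Note: spheroids exposed to compounds for one week before readout.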
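Throughout, for viability, T/C: luminescence used as stand-in measure of viable cells.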

O=C(Nc1ccc(O)c(NS(=O)(=O)c2ccc(F)cc2)c1)c1ccc(-c2ccccc2)cc1 + Nc1ccc(C#CCN(C(=O)Cc2ncc(C(F)(F)F)cc2C(F)(F)F)c2ccc(F)cc2)nn1
> 10 µM: IC50 (second compound 0.0316 µM) | IC50 (second compound 0.1 µM) | IC50 (second compound 0.316 µM) | IC50 (second compound 1 µM) | IC50 (second compound 3.16 µM) | IC50 (second compound 10 µM)
inactive: viability, T/C (second compound 0.0316 µM, first compound 0.0316 µM) 100% | viability, T/C (second compound 0.0316 µM, first compound 0.1 µM) 97.3% | viability, T/C (second compound 0.0316 µM, first compound 0.316 µM) 84.3% | viability, T/C (second compound 0.0316 µM, first compound 1 µM) 107% | viability, T/C (second compound 0.0316 µM, first compound 3.16 µM) 92.7% | viability, T/C (second compound 0.0316 µM, first compound 10 µM) 78.2% | viability, T/C (second compound 0.1 µM, first compound 0.0316 µM) 104% | viability, T/C (second compound 0.1 µM, first compound 0.1 µM) 99.1% | viability, T/C (second compound 0.1 µM, first compound 0.316 µM) 106% | viability, T/C (second compound 0.1 µM, first compound 1 µM) 86.1% | viability, T/C (second compound 0.1 µM, first compound 3.16 µM) 97.2% | viability, T/C (second compound 0.1 µM, first compound 10 µM) 61.6% | viability, T/C (second compound 0.316 µM, first compound 0.0316 µM) 105% | viability, T/C (second compound 0.316 µM, first compound 0.1 µM) 102% | viability, T/C (second compound 0.316 µM, first compound 0.316 µM) 107% | viability, T/C (second compound 0.316 µM, first compound 1 µM) 94.9% | viability, T/C (second compound 0.316 µM, first compound 3.16 µM) 97.4% | viability, T/C (second compound 0.316 µM, first compound 10 µM) 71.5% | viability, T/C (second compound 1 µM, first compound 0.0316 µM) 102% | viability, T/C (second compound 1 µM, first compound 0.1 µM) 90.8% | viability, T/C (second compound 1 µM, first compound 0.316 µM) 89.6% | viability, T/C (second compound 1 µM, first compound 1 µM) 95.3% | viability, T/C (second compound 1 µM, first compound 3.16 µM) 99.8% | viability, T/C (second compound 1 µM, first compound 10 µM) 66.2% | viability, T/C (second compound 3.16 µM, first compound 0.0316 µM) 102% | viability, T/C (second compound 3.16 µM, first compound 0.1 µM) 103% | viability, T/C (second compound 3.16 µM, first compound 0.316 µM) 106% | viability, T/C (second compound 3.16 µM, first compound 1 µM) 97.8% | viability, T/C (second compound 3.16 µM, first compound 3.16 µM) 91.7% | viability, T/C (second compound 3.16 µM, first compound 10 µM) 75.7% | viability, T/C (second compound 10 µM, first compound 0.0316 µM) 102% | viability, T/C (second compound 10 µM, first compound 0.1 µM) 99.9% | viability, T/C (second compound 10 µM, first compound 0.316 µM) 111% | viability, T/C (second compound 10 µM, first compound 1 µM) 89.5% | viability, T/C (second compound 10 µM, first compound 3.16 µM) 99.5% | viability, T/C (second compound 10 µM, first compound 10 µM) 59.5%
